Structures are written as SMILES.

T1 sequence (P04629 440-796 limits assumed): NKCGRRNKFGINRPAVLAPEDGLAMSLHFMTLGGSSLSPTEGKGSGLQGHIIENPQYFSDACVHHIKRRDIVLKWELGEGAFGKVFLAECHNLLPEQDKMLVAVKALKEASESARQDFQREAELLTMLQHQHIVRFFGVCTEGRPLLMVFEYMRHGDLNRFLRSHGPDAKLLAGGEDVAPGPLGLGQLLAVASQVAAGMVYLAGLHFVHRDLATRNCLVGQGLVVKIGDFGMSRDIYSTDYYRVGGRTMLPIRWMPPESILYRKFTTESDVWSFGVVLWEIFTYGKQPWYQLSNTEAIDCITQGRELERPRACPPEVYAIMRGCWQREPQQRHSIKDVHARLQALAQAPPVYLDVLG

The test concerns the target T1, His-tagged recombinant human TrkA (Homo sapiens, UniProt P04629).
T1 construct: 6HIS tagged cytoplasmic domain from Invitrogen, Cat. No. PV3144; purchased Invitrogen PV3144
The test is described as follows: TrkA LanthaScreen Eu Kinase Binding Assay. The note with it: averaged IC50; LanthaScreen Eu kinase binding, TR-FRET; read-out: TrkA enzyme IC50. As for the experimental part: TrkA binding activity was determined in a TrkA LanthaScreen™ Eu Kinase Binding Assay. […] Three fold serial dilutions of compounds of the invention in DMSO were added to a final percentage of 2% DMSO. […] The percent of control was calculated using a ratiometric emission factor. The IC50 values were determined by fitting a four parameter model to the percent of control data.
As to `Cc1c(-c2cnn(C)c2)nn(-c2ccccc2)c1NC(=O)Nc1cc(C2CC2)nn1-c1ccccc1` [Example 1, 1-(3-cyclopropyl-1-phenyl-1H-pyrazol-5-yl)-3-(1′,4-dimethyl-1-phenyl-1H,1′H-[3,4′-bipyrazol]-5-yl)urea], the IC50 (usually the concentration needed to halve the response being measured) is less than 0.1 µM. As for `Cc1cc(NC(=O)Nc2c(C)c(-c3cnn(C)c3)nn2-c2ccccc2)n(-c2ccccc2)n1` [Example 2, 1-(1′,4-dimethyl-1-phenyl-1H,1′H-[3,4′-bipyrazol]-5-yl)-3-(3-methyl-1-phenyl-1H-pyrazol-5-yl)urea], the figure is 0.1 to 1 µM; as for `Cc1c(-c2ccc(=O)n(C)c2)nn(-c2ccccc2)c1NC(=O)Nc1cc(C(F)(F)F)nn1-c1ccccc1` [Example 4, 1-(4-methyl-3-(1-methyl-6-oxo-1,6-dihydropyridin-3-yl)-1-phenyl-1H-pyrazol-5-yl)-3-(1-phenyl-3-(trifluoromethyl)-1H-pyrazol-5-yl)urea], less than 0.1 µM. In the case of `Cc1c(-c2ccn(C)c(=O)c2)nn(-c2ccccc2)c1NC(=O)Nc1cc(C(F)(F)F)nn1-c1ccccc1` [Example 5, 1-(4-methyl-3-(1-methyl-2-oxo-1,2-dihydropyridin-4-yl)-1-phenyl-1H-pyrazol-5-yl)-3-(1-phenyl-3-(trifluoromethyl)-1H-pyrazol-5-yl)urea] it was less than 0.1 µM. In the case of `Cc1c(-c2cnn(C)c2)nn(-c2ccccc2)c1NC(=O)Nc1c(C)c(C(F)(F)F)nn1-c1ccccc1` [Example 6, 1-(1′,4-dimethyl-1-phenyl-1H,1′H-[3,4′-bipyrazol]-5-yl)-3-(4-methyl-1-phenyl-3-(trifluoromethyl)-1H-pyrazol-5-yl)urea], the IC50 was 0.1 to 1 µM.

`Cc1c(-c2cnn(C)c2)nn(-c2ccccc2)c1NC(=O)Nc1cc(C2CC2(F)F)nn1-c1ccccc1` (centres unmarked) [Example 7, 1-(3-(2,2-difluorocyclopropyl)-1-phenyl-1H-pyrazol-5-yl)-3-(1′,4-dimethyl-1-phenyl-1H,1′H-[3,4′-bipyrazol]-5-yl)urea]: the half-inhibitory concentration (IC50) was less than 0.1 µM. Take `Cc1c(-c2cnn(C)c2)nn(-c2ccccc2)c1NC(=O)Nc1cc(C(C)C)nn1-c1ccccc1` [Example 8, 1-(1′,4-dimethyl-1-phenyl-1H,1′H-[3,4′-bipyrazol]-5-yl)-3-(3-isopropyl-1-phenyl-1H-pyrazol-5-yl)urea]: the IC50 lay within 0.1 to 1 µM. As for `Cc1c(-c2cnn(C)c2)nn(-c2ccccc2)c1NC(=O)Nc1cc(CC(F)(F)F)nn1-c1ccccc1` [Example 9, 1-(1′,4-dimethyl-1-phenyl-1H,1′H-[3,4′-bipyrazol]-5-yl)-3-(1-phenyl-3-(2,2,2-trifluoroethyl)-1H-pyrazol-5-yl)urea], the figure is 0.1 to 1 µM; as for `Cc1c(-c2cnn(C)c2)nn(-c2ccccc2)c1NC(=O)Nc1cc(CC(F)(F)F)nn1-c1ccc(F)cc1` [Example 10, 1-(1′,4-dimethyl-1-phenyl-1H,1′H-[3,4′-bipyrazol]-5-yl)-3-(1-(4-fluorophenyl)-3-(2,2,2-trifluoroethyl)-1H-pyrazol-5-yl)urea], 0.1 to 1 µM.

As to `COc1ncc(-c2nn(-c3ccccc3)c(NC(=O)Nc3cc(C(F)(F)F)nn3-c3ccccc3)c2C)cn1` [Example 11, 1-(3-(2-methoxypyrimidin-5-yl)-4-methyl-1-phenyl-1H-pyrazol-5-yl)-3-(1-phenyl-3-(trifluoromethyl)-1H-pyrazol-5-yl)urea], the IC50 is less than 0.1 µM. With `Cc1c(OCCO)nn(-c2ccccc2)c1NC(=O)Nc1cc(C(F)(F)F)nn1-c1ccccc1` [Example 12, 1-(3-(2-hydroxyethoxy)-4-methyl-1-phenyl-1H-pyrazol-5-yl)-3-(1-phenyl-3-(trifluoromethyl)-1H-pyrazol-5-yl)urea], the IC50 is less than 0.1 µM.

The values are drawn from US9809578B2, “Pyrazolyl urea, thiourea, guanidine and cyanoguanidine compounds as trkA kinase inhibitors” (Array BioPharma Inc., priority 2012, dated 2017).
